Laboratory results reported in ChEMBL document CHEMBL1141890, “DNA topoisomerase I inhibitors from Rinorea anguifera” (Bioorg Med Chem Lett, 2005).

What was measured:
[1] = target: T1, DNA topoisomerase 1 (Homo sapiens) (UniProt P11387); settings: 0.25 uM
T1 sequence (whole entry): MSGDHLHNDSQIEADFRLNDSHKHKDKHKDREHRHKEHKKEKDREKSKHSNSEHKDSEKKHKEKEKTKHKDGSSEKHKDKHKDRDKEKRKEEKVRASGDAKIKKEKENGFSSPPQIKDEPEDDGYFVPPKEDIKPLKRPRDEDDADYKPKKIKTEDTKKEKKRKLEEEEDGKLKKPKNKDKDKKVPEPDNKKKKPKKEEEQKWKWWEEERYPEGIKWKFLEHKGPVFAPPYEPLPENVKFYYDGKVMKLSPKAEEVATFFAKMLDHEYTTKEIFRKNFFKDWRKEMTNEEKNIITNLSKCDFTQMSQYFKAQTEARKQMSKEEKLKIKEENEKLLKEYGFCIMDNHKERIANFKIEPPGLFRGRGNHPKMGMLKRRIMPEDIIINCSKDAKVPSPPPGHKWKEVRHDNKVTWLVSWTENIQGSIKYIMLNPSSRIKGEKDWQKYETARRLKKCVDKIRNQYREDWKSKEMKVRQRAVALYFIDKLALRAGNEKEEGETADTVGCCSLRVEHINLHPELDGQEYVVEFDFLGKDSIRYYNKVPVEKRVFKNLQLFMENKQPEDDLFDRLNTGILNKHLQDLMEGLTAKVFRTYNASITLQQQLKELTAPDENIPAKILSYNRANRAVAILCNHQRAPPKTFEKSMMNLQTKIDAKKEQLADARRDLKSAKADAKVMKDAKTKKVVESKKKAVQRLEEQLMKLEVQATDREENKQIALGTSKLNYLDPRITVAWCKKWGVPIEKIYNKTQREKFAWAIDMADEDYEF
Description: Effect on DNA breakge as nicked FormII at 0.25 uM with topoisomerase I

[2] = target: T1, DNA topoisomerase 1 (Homo sapiens); settings: 2 uM
Description: Effect on DNA breakge as nicked FormII at 2 uM without topoisomerase I

[3] = target: T1, DNA topoisomerase 1 (Homo sapiens); settings: 2 uM; remark: listed apart in the source
Description: Effect on stabilization of human topoisomerase I-DNA covalent complex at 2 uM

[4] = target: T1, DNA topoisomerase 1 (Homo sapiens); test: Effect on DNA breakge as nicked FormII at 100 uM without topoisomerase I; assay type: functional
[5] = target: T1, DNA topoisomerase 1 (Homo sapiens); test: Effect on DNA breakge as nicked FormII at 1 uM with topoisomerase I; assay type: functional
[6] = target: T1, DNA topoisomerase 1 (Homo sapiens); test: Effect on stabilization of human topoisomerase I-DNA covalent complex at 100 uM

SMILES | Effect [1] [%] | Effect [2] [%] | Effect [3] [%] | Effect [4] [%] | Effect [5] [%] | Effect [6] [%]
CC[C@@]1(O)C(=O)OCc2c1cc1n(c2=O)Cc2cc3ccccc3nc2-1 | 84 | 96 | 2 | – | – | –
CC1O[C@@H](OC[C@H]2O[C@@H](Oc3c(-c4ccc(O)cc4)oc4cc(O)cc(O)c4c3=O)C(O[C@@H]3O[C@H](C)[C@H](O)C(O)C3O)C(O)[C@H]2O)C(O)[C@@H](O)[C@H]1O (some centres undefined) | – | – | – | 75 | 31 | 10
COc1cc([C@H]2OC[C@H]3[C@@H]2CO[C@@H]3c2cc(OC)c(O)c(OC)c2)cc(OC)c1O | – | – | – | 15 | 8 | 2
